Experimental data as given in US6787564B2, “Optically active clausenamides, process of the preparation thereof, pharmaceutical composition containing the same and their medical use” (Institute of Materia Medica, Chinese Academy of Medical …, priority 2002, dated 2004).

What was measured:
mitochondrial complex IV = mitochondrial complex IV activity in Bax α high expressing PC12 cells; assay type: cell-based; details: without drug 0.09±0.019
Source text: (§1) Obviously, the increased mitochondrial membrane potential is considered to be one of the antiapoptotic mechanisms of (−) Clausenamide. The increased mitochondrial complex I and complex IV activity may account for the increased mitochondrial membrane potential. The Bax α protein may induce apoptosis by affecting enzyme activities of the mitochondrial electron transfer chain. And the mitochondrial complex I and complex IV could be the targeting points of the Bax α protein.

[1] = tested on: animals with anisodine-induced memory impairment; assay: step-through test, memory impairment induced by anisodine; assay type: in vivo
Source text: (§2) This invention used one trial avoidance task—step-down and step-through tests and water maze to compare the improving memorial effects of (±), (−) clausenamide. The drugs were given orally once to animals before experiment in step-down and step-through tests. The water maze test lasted for 5 days in succession. The results were expressed as latency and errors number.

A β 25-35 treated rats = assay: Morris water maze, A β 25-35 induced impairment of memory; assay type: in vivo
Source text: Pathological features of Alzheimer's disease (AD) include extensive neuronal loss and the presence of numerous neurofibrillary tangles and senile plaques in the brain. The senile plaques contain amyloid fibrils derived from a 39-43 amino acids peptide referred to as β-amyloid or A β which can produce neurotoxicity. A β 25-35 poccesses the similar neurotoxicity and ability of self-aggregation as A β 1-42. Administrated aggregated A β 25-35 into rat's lateral cerebral ventricle induced memory impairment in Morris water maze.
With increasing of training days, the initial heading angle became small. On the 3th day, the initial heading angle of A β group was larger than control. […] (see Tab.3)
There are four strategies for finding platform in Morris water maze: random, circle, taxis and line. In the beginning of training the search strategies for finding target is mainly circle and random, with the increasing of training, the percentage of the two strategies declined gradually, Beginning from the 3th day, declining speed in control and (−) clausenamide group was faster than A β,(+) clausenamide and piracetam groups.

animals [2] = assay: nootropic action overall: step-down, step-through and water maze tests; assay type: in vivo; details: in vivo
Protocol: This invention used one trial avoidance task—step-down and step-through tests and water maze to compare the improving memorial effects of (±), (−) clausenamide.
The drugs were given orally once to animals before experiment in step-down and step-through tests. The water maze test lasted for 5 days in succession. The results were expressed as latency and errors number.
The effective dose of piracetam was 500 mg.kg^−1.

mitochondrial complex I = mitochondrial complex I activity in Bax α high expressing PC12 cells; assay type: cell-based; details: without drug 1.44±0.16
Source text: as §1

Bcl-2 = Bcl-2 expression level by western blot in 6-OHDA treated Bax α high expressing PC12 cells; assay type: cell-based; details: 10^−7M, 10^−6M; 24 hours after 6-OHDA treatment
Source text: (§3) It means that Bax α expression may promote the production of reactive oxygen species. The antiapoptotic effect of (−) clausenamide may be attributed to its reduction of the mitochondrial MDA level and the increase of mitochondrial GSH level. The increased mitochondrial GSH may be the result of the increased Bcl-2 level. As Bcl-2 itself is not an antioxidant, it may promote the closing of PT pores, and form heterodimers with Bax α and protect the mitochondria from injury and thus reduce the production of reactive oxygen, species.

[3] = tested on: Bax α high expressing PC12 cells; assay: mitochondrial GSH and MDA level in 6-OHDA treated Bax α high expressing PC12 cells; assay type: cell-based; details: for mitochondrial GSH level: without drug 9.84±1.20; for mitochondrial MDA level: without drug 2.46±0.19
Source text: as §3

calpain = calpain activity in the cortical and hippocampal tissue; assay type: in vivo, rats; details: without HFS, Nimodipine 2 nmol, mean ± S.D., n = 5
Source text: The rats were anaesthetized with urethane carbonate.

[4] = tested on: Bax α high expressing PC12 cells; assay: mitochondrial membrane potential in 6-OHDA treated Bax α high expressing PC12 cells; assay type: cell-based; details: 6-OHDA 12 hours, without drug 24.6
Source text: as §1

BDNF = BDNF protein expression in cortical neurons and hippocampal pyramide cells; assay type: in vivo, rats; details: 8, 40 mg·kg^−1 orally daily for 10 days
rats = assay: mossy fiber sprouting in fascia dentata and hippocampal CA3 region; assay type: in vivo; details: 8 and 40 mg·kg^−1 orally daily for 10 days; adult rat
Source text: 2. […] This is morphological basis for levoclausenamide to incnease synaptic transmission (see FIGS. 1 and 2).

calcineurin = calcineurin activity in the cortical and hippocampal tissue; details: without HFS; Nimodipine 2 nmol; mean ± S.D., n = 5; control 7.8 ± 0.6
Source text: The rats were anaesthetized with urethane carbonate. The recording and stimulating electrodes were made from Teflon coated stainless steel wires. The bipolar stimulating electrode was sterotaxically placed in the entorhinal cortex to stimulate the perforant path, and the evoked potential was extracellular recorded from the dentate gyrus granule cell layer of ipsilateral. The population spike (PS) is served as an indication of granule cell's excitation. Long term potentiation (LTP) was induced by a 200 Hz high frequency stimulation 5×single square wave pulses of 0.2 ms duration. The drug or vehicle (DMSO) were injected into lateral cerebral ventricle in a 5 μl volume over a 5 min period via a Hamilton syringe.

apoptosis = assay: three apoptotic models; assay type: cell-based; details: 10^−7−10^−5 mol/l
zif/268 = assay: protein biosyntheses of mice brain and zif/268 expression; details: mouse, in vivo
animals [5] = assay: memory in water maze test; assay type: in vivo; details: 10 mg/kg
Source text: as §2

[6] = tested on: animals with anisodine-induced memory impairment; assay: memory impairment induced by anisodine in water maze test; assay type: in vivo; details: anisodine + drug 10 mg/kg
Source text: as §2

[7] = tested on: animals with anisodine-induced memory impairment; assay: step-down test, memory impairment induced by anisodine; assay type: in vivo
Source text: as §2

[8] = anisodine + drug 10 mg/kg (Tab 7)
[9] = anisodine + drug 50 mg/kg (Tab 7)

In the case of `CN1C(=O)[C@@H](O)[C@H](c2ccccc2)[C@@H]1[C@@H](O)c1ccccc1` [(−)clausenamide, 3S, 4R, 5R, 6S (−) Levoclausenamide], the “mitochondrial complex IV activity” value (mitochondrial complex IV; 10^−5M) is reported as 0.18±0.01 umol/mg pro/min, the “mitochondrial complex IV activity” value (mitochondrial complex IV; 10^−6M) is reported as 0.15±0.02 umol/mg pro/min and the “mitochondrial complex IV activity” value (mitochondrial complex IV; 10^−7M) is reported as 0.12±0.015 umol/mg pro/min. The “Latencies, Step-through” value ([1]; 5 mg/kg oral once) was 47.9 ± 90 s, the “Error number, Step-through” value ([1]; 5 mg/kg oral once, 0.9% Nacl + anisodine 12.7 ± 4.6) was 5.7 ± 4.7 and the “Error number, Step-through” value ([1]; 10 mg/kg oral once (Table 4)) was 6.5 ± 5.0. For the same compound, the “Latencies, Step-through” value ([1]; 10 mg/kg oral once (Table 4)) was 59.4 ± 91 s, the “Error number, Step-through” value ([1]; 50 mg/kg oral once (Table 4)) was 7.1 ± 3.6 and the “Latencies, Step-through” value ([1]; 50 mg/kg oral once (Table 4)) was 17.1 ± 12.4 s. For the same compound, the Error number [1, 8] was 6.7 ± 11.0, the Latencies [1, 8] was 138.2 ± 86.7 s and the Error number [1, 9] was 5.4 ± 4.1. For the same compound, the Latencies [1, 9] was 140.6 ± 96.4 s, the “spatial learning and memory impairment induced by aggregated A β 25-35” value (A β 25-35 treated rats; 8,40 mg·kg^−1 daily for 8 days from the 8th day after icv 15 nmol aggregated A β 25-35) was “significantly ameliorated” and the “initial heading angle on the 3th day (in words)” value (A β 25-35 treated rats; (−),(+) clausenamide 8 and 40 mg.kg^−1, piracetam 400 mg·kg^−1, vs A β group) was “significantly reduced the angle”. For the same compound, the “latency for finding the platform, 3th to 5th day” value (A β 25-35 treated rats; (−),(+) clausenamide 8 and 40 mg·kg^−1, piracetam 400 mg.kg^−1, vs A β group) was “shorter than that of A β group”, the “initial heading angle, training day 1” value (A β 25-35 treated rats; A β 25-35 + drug at 8 mg/kg) was 89.7 ± 29.4 and the “initial heading angle, training day 2” value (A β 25-35 treated rats; A β 25-35 + drug at 8 mg/kg) was 72.3 ± 19.8. The “initial heading angle, training day 3” value (A β 25-35 treated rats; A β 25-35 + drug at 8 mg/kg) was 46.5 ± 21.2, the “initial heading angle, training day 4” value (A β 25-35 treated rats; A β 25-35 + drug at 8 mg/kg) was 30.4 ± 14.8 and the “initial heading angle, training day 5” value (A β 25-35 treated rats; A β 25-35 + drug at 8 mg/kg) was 17.6 ± 9.5. The “initial heading angle, training day 1” value (A β 25-35 treated rats; A β 25-35 + drug at 40 mg/kg) was 101.5 ± 24.3, the “initial heading angle, training day 2” value (A β 25-35 treated rats; A β 25-35 + drug at 40 mg/kg) was 83.5 ± 21.8 and the “initial heading angle, training day 3” value (A β 25-35 treated rats; A β 25-35 + drug at 40 mg/kg) was 51.2 ± 18.7. The “initial heading angle, training day 4” value (A β 25-35 treated rats; A β 25-35 + drug at 40 mg/kg) was 28.4 ± 13.2, the “initial heading angle, training day 5” value (A β 25-35 treated rats; A β 25-35 + drug at 40 mg/kg) was 20.7 ± 8.7 and the “appearance of taxis and line search strategies” value (A β 25-35 treated rats; from the 3th training day) was “increased markedly”. For the same compound, the “nootropic action, times more potent than (±) clausenamide” value (animals [2]) was 5-10 times, the “nootropic action, times more potent than piracetam” value (animals [2]) was 50-100 times and the “mitochondrial complex I activity” value (mitochondrial complex I; 10^−5M) was 2.16±0.2 umol/mg pro/min. The “mitochondrial complex I activity” value (mitochondrial complex I; 10^−7M) was 1.57±0.12 umol/mg pro/min, the Bcl-2 expression level (Bcl-2) was “significantly increase the Bcl-2 expression level” and the “mitochondrial GSH level” value ([3]; 10^−5M) was 17.78±1.04 nmol/mg pro. For the same compound, the “mitochondrial MDA level” value ([3]; 10^−6M) was 1.54±0.13 nmol/mg pro, the “mitochondrial GSH level” value ([3]; 10^−6M) was 15.10±0.95 nmol/mg pro and the “mitochondrial GSH level” value ([3]; 10^−7M, 6-OHDA treated) was 12.29±0.99 nmol/mg pro. The “mitochondrial MDA level” value ([3]; 10^−7M) was 1.76±0.17 nmol/mg pro, the “calpain activity, Cortical tissue” value (calpain; control 1.5 ± 0.2) was 2.6 ± 0.5 ΔA595nm/hr/mg protein and the “calpain activity, Hippocampal tissue” value (calpain; control 1.7 ± 0.5) was 2.7 ± 0.8 ΔA595nm/hr/mg protein. For the same compound, the mitochondrial membrane potential ([4]; 10^−6M) was 56.0±5.0, the mitochondrial membrane potential ([4]; 10^−7M) was 30.7±3.3 and the “BDNF protein expression in the cortical neurons and pyramide cells in the hippocampus” value (BDNF) was “dose-dependently increased”. The “mossy fiber sprouting in the fascia dentate and stratum lucidum” value (rats) was “dose-dependently increased”, the “calcineurin activity, Hippocampal tissue” value (calcineurin) was 10.4 ± 0.5 (μmol Pi)/hr/μ g protein and the “apoptosis in three apoptotic models” value (apoptosis) was “inhibited apoptosis significantly”. For the same compound, the “protein biosyntheses of mice brain” value (zif/268) was “increased”, the “zif/268 mRNA and protein expression” value (zif/268) was “promoted” and the “Lalencies reaching platform, 3rd day” value (animals [5]) was 17.4 ± 10.9 s. The “Lalencies reaching platform, 4th day” value (animals [5]) was 12.1 ± 6.9 s, the “Lalencies reaching platform, Second day” value (animals [5]) was 28.7 ± 35.2 s and the Errors number [6] was 9.4 ± 5.9. The “Error number, Step-down” value ([7]; 5 mg/kg oral once) was 0.5 ± 0.5, the “Latencies, Step-down” value ([7]; 5 mg/kg oral once) was 186 ± 129 s and the “Error number, Step-down” value ([7]; 10 mg/kg oral once) was 0.2 ± 0.4. The “Latencies, Step-down” value ([7]; 10 mg/kg oral once) was 296 ± 97 s, the “Error number, Step-down” value ([7]; 50 mg/kg oral once) was 0.2 ± 0.4 and the “Latencies, Step-down” value ([7]; 50 mg/kg oral once) was 265 ± 91 s.
